Data set [1] concerns A549. Description: Inhibition of mitochondrial respiration in human Trametinib-resistant A549 cell assessed as reduction in spare oxygen consumption rate capacity at 50 to 200 nM incubated for 12 hrs by seahorse XF96 flux analyzer. It is filed as functional, cell-based. The note with it: dose 50-200 nM.
Data set [2] concerns NCI-H460. Description: Inhibition of colony formation in human NCI-H460 cells with high-OXPHOS incubated for 7 days by crystal violet staining based analysis. It is filed as functional, cell-based. The note with it: dose 250-1000 nM, time 7.0 day.
A further data set has as its target Cytochrome P450 2D6 (Homo sapiens, UniProt P10635). Briefly: Inhibition of CYP2D6 in human liver microsomes. It is filed as ADME, Microsome.
Data set [3] is described as follows: Tmax in ICR mouse at 10 mg/kg, po measured for 24 hrs by LC-MS/MS analysis. The note with it: in vivo. It is filed as ADME, organism-based.
Data set [4] can be described thus: AUC (0 to 24 hrs) in ICR mouse at 1 mg/kg, iv measured for 24 hrs by LC-MS/MS analysis. It is filed as ADME, organism-based. Set-up: time 24 hrs, dose 1 mg/kg, route iv. The note with it: in vivo.
The nature of data set [5]: AUC (0 to 24 hrs) in ICR mouse at 10 mg/kg, po measured for 24 hrs by LC-MS/MS analysis. It is filed as ADME, organism-based. Set-up: time 24 hrs, dose 10 mg/kg, route po. The note with it: in vivo.
The nature of data set [6]: Clearance in ICR mouse at 1 mg/kg, iv measured for 24 hrs by LC-MS/MS analysis. The note with it: in vivo. It is filed as ADME, organism-based.
A short description of data set [7]: MRT (0 to 24 hrs) in ICR mouse at 10 mg/kg, po measured for 24 hrs by LC-MS/MS analysis. In kind it is ADME, organism-based. The note with it: in vivo.
Data set [8] concerns NCI-H460. Description: Potentiation of trametinib-induced antitumor activity against human NCI-H460 cells with high-OXPHOS xenografted in mouse assessed as reduction in tumor weight at 30 mg/kg, po bid administered for 18 days and measured every 3 days by electronic caliper analysis. It is filed as functional, organism-based. The note with it: time 18.0 day. (A xenograft is tissue or cells of one species grown in another, often human tumour cells in immunodeficient mice.)

The test system of data set [9] is NCI-H460. Description: Antitumor activity against human NCI-H460 cells with high-OXPHOS xenografted in mouse assessed as reduction in Ki67 expression at 30 mg/kg, po bid administered for 18 days in presence of trametinib by immunohistochemical analysis. It is filed as functional, organism-based. The note with it: time 18.0 day.
Data set [10] can be described thus: Toxicity in mouse xenografted with human NCI-H460 cells with high-OXPHOS assessed as reduction in serum ALT level at 30 mg/kg, po bid administered for 18 days. It is filed as organism-based. The note with it: in vivo, 432 h, time 18 day.
Data set [11] in a line: Toxicity in mouse xenografted with human NCI-H460 cells with high-OXPHOS assessed as pathological changes in heart at 30 mg/kg, po bid administered for 18 days by H and E staining based analysis. In kind it is organism-based. The note with it: in vivo, 432 h, time 18 day.
A short description of data set [12]: Toxicity in mouse xenografted with human NCI-H460 cells with high-OXPHOS assessed as pathological changes in kidney at 30 mg/kg, po bid administered for 18 days by H and E staining based analysis. In kind it is organism-based. The note with it: in vivo, 432 h, time 18 day.
Data set [13] concerns A549. Briefly: Inhibition of colony formation in human Trametinib-resistant A549 cells with high-OXPHOS incubated for 7 days by crystal violet staining based analysis. In kind it is functional, cell-based. The note with it: dose 25-100 nM, time 7.0 day.
In data set [14] the test system is NCI-H460. Briefly: Inhibition of colony formation in human NCI-H460 cells with high-OXPHOS harboring KRAS Q61H mutant incubated for 10 to 14 days in presence of trametinib by crystal violet staining based analysis. In kind it is functional, cell-based. The note with it: time 10-14 day.
The test system of data set [15] is A549. Description: Induction of apoptosis in human Trametinib-resistant A549 cells with high-OXPHOS harboring KRAS G12S mutant assessed as late apoptotic cells at 20 nM incubated for 72 hrs by Annexin V-FITC/propidium iodide staining based flow cytometry analysis (reference value: 4.27%). It is filed as functional.

The source made the active and inactive calls. No cut-off for these calls is given here.

Cytochrome P450 2D6, sequence (P10635 whole entry): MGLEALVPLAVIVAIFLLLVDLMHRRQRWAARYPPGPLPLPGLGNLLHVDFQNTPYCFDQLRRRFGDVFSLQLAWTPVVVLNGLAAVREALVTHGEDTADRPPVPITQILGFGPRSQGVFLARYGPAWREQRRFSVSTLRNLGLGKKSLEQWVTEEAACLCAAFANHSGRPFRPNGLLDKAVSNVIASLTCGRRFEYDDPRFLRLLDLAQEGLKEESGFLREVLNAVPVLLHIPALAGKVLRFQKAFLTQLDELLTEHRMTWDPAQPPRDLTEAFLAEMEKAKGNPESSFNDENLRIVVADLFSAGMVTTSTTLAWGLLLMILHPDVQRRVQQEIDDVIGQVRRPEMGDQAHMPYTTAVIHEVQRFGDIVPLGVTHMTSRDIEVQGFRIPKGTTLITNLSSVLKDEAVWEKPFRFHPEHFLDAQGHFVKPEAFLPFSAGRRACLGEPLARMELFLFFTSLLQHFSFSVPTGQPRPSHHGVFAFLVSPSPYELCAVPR

Take `Cc1c(C(=O)N2CCN(Cc3ccc(OCC(F)(F)F)cc3)CC2)nnn1Cc1ccc(C(=O)Nc2ccc(C(F)(F)F)cc2)nc1`: the inhibition result in the data set on A549 [1] and in the data set with NCI-H460 [14] was “Active” in each case. The inhibition result with NCI-H460 [2] and in the data set on A549 [13] was “Dose-Dependent Effect” each time. The IC50 (in general, the concentration at which inhibition is half-maximal) against Cytochrome P450 2D6 is above 50 µM. Also, the Tmax (as a rule, the time from dosing to the highest level) in data set [3] amounted to 1 h. Besides, the AUC(0-t) (as a rule, the area under the concentration-time curve up to a stated or last time point) at 24 h in [4] was determined as 337 ng·h/mL; in [5], 2170 ng·h/mL. For the same compound, the clearance – broadly, a measure of how efficiently the substance is removed, as volume per time – in [6] is 46.6 mL/min/kg. Moreover, the MRT last (in general, the average time that molecules of a dose stay in the body) at 24 h in data set [7] was found to be 3 h. The result in the data set on NCI-H460 [8] and in the data set on NCI-H460 [9] was Active. The Activity result in data set [10] is reported as “Non-Toxic”; in [11], “Non-Toxic”; in data set [12], “Non-Toxic”; with A549 [15] it was 7.45%.

The values above are taken from ChEMBL document CHEMBL5380875, “Discovery of a Potent and Oral Available Complex I OXPHOS Inhibitor That Abrogates Tumor Growth and Circumvents MEKi Resistance” (J Med Chem, 2023).
